Laboratory results reported in US20050107423A1, “Quinolone antibacterial agents” (priority 2003, published 2005).
In brackets after ≈: the same amount, converted by molar mass.

Key:
Assay in all cases: Antibacterial assay, microtitration MIC (Test A)
Format in all cases: cell-based
E. faecalis MGH-2 = conditions: strain MGH-2; for MIC: Enterococcus faecalis, MGH2, Gram Positive Bacteria, read-out: Minimum Inhibitory Concentrations E. faecalis MGH-2
Method in brief: (§1)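 Growth inhibition of Gram-positive and Gram-negative isolates was assessed by microtitration; values reported are MICs.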

S pyogenes C203 = conditions: Gram Positive Bacteria; strain C203; read-out: Minimum Inhibitory Concentrations S pyogenes C203
Method in brief: as §1

S. aureus UC-76 = conditions: Staphylococcus aureus, UC76, Gram Positive Bacteria; strain UC-76; read-out: Minimum Inhibitory Concentrations S. aureus UC-76
Method in brief: as §1

S. pneumo SV-1 = conditions: Gram Positive Bacteria; strain SV-1; read-out: Minimum Inhibitory Concentrations S. pneumo SV-1
Method in brief: as §1

Structure (SMILES)	MIC (E. faecalis MGH-2) [µg/mL]	MIC (S pyogenes C203) [µg/mL]	MIC (S. aureus UC-76) [µg/mL]	MIC (S. pneumo SV-1) [µg/mL]	Minimum Inhibitory Concentrations E. faecalis MGH-2 (E. faecalis MGH-2; Gram Positive Bacteria) [µg/mL]
COc1c(N2C[C@@H](CO)[C@@H](CO)C2)c(F)c(N)c2c(=O)c(C(=O)O)cn(C3CC3)c12 [drawing 400]	0.25 (≈ 0.593 µM)	0.25 (≈ 0.593 µM)	0.008 (≈ 0.019 µM)	0.125 (≈ 0.297 µM)	–
COc1c(N2CCC(C(O)CO)C2)c(F)cc2c(=O)c(C(=O)O)cn(C3CC3)c12 (stereo not drawn) [drawing 355]	0.03 (≈ 0.0738 µM)	0.03 (≈ 0.0738 µM)	0.002 (≈ 0.00492 µM)	0.03 (≈ 0.0738 µM)	–
COC[C@@H]1CN(c2c(F)cc3c(=O)c(C(=O)O)cn(C4CC4)c3c2C)C[C@@H]1CO [drawing 408]	0.06 (≈ 0.148 µM)	0.06 (≈ 0.148 µM)	0.004 (≈ 0.00989 µM)	0.03 (≈ 0.0742 µM)	–
COc1c(N2C[C@]3(CO)CCC[C@]3(CO)C2)c(F)cc2c(=O)c(C(=O)O)cn(C3CC3)c12 [drawing 462]	0.5 (≈ 1.12 µM)	1 (≈ 2.24 µM)	0.15 (≈ 0.336 µM)	0.25 (≈ 0.56 µM)	–
COc1c(N2CCC(C(O)C(F)F)C2)c(F)cc2c(=O)c(C(=O)O)cn(C3CC3)c12 (stereo not drawn) [drawing 349]	0.125 (≈ 0.293 µM)	0.25 (≈ 0.586 µM)	0.008 (≈ 0.0188 µM)	0.06 (≈ 0.141 µM)	–
COCC(O)C1CN(c2c(F)cc3c(=O)c(C(=O)O)cn(C4CC4)c3c2C)CC1(C)C (stereo not drawn) [drawing 435]	0.25 (≈ 0.578 µM)	0.5 (≈ 1.16 µM)	0.015 (≈ 0.0347 µM)	0.25 (≈ 0.578 µM)	–
O=C(O)c1cn(C2CC2)c2c(Cl)c(N3C[C@@H](CO)[C@@H](CO)C3)c(F)cc2c1=O [drawing 401]	0.125 (≈ 0.304 µM)	0.125 (≈ 0.304 µM)	0.004 (≈ 0.00974 µM)	0.125 (≈ 0.304 µM)	–
Cc1c(N2CC(C(C)O)C(C)(C)C2)c(F)cc2c(=O)c(C(=O)O)cn(C3CC3)c12 (stereo not drawn) [drawing 432]	0.06 (≈ 0.149 µM)	0.125 (≈ 0.311 µM)	0.008 (≈ 0.0199 µM)	0.06 (≈ 0.149 µM)	–
COc1c(N2C[C@@H](CO)[C@@H](CO)C2)c(F)cc2c(=O)c(C(=O)O)cn(C3CC3)c12 [drawing 403]	0.06 (≈ 0.148 µM)	0.06 (≈ 0.148 µM)	0.002 (≈ 0.00492 µM)	0.06 (≈ 0.148 µM)	–
Cc1c(N2CC(CO)C(C)(C)C2)c(F)cc2c(=O)c(C(=O)O)cn(C3CC3)c12 (stereo not drawn) [drawing 427]	0.06 (≈ 0.154 µM)	0.06 (≈ 0.154 µM)	0.002 (≈ 0.00515 µM)	0.03 (≈ 0.0772 µM)	–
CCCOC[C@@H]1CN(c2c(F)cc3c(=O)c(C(=O)O)cn(C4CC4)c3c2C)C[C@@H]1CO [drawing 410]	0.125 (≈ 0.289 µM)	0.125 (≈ 0.289 µM)	0.004 (≈ 0.00925 µM)	0.06 (≈ 0.139 µM)	–
COc1c(N2CCC(C(CO)CO)C2)c(F)cc2c(=O)c(C(=O)O)cn(C3CC3)c12 (stereo not drawn) [drawing 340]	0.03 (≈ 0.0714 µM)	0.06 (≈ 0.143 µM)	0.004 (≈ 0.00951 µM)	0.03 (≈ 0.0714 µM)	–
CCOC[C@@H]1CN(c2c(F)cc3c(=O)c(C(=O)O)cn(C4CC4)c3c2C)C[C@@H]1CO [drawing 409]	0.125 (≈ 0.299 µM)	0.125 (≈ 0.299 µM)	0.004 (≈ 0.00956 µM)	0.06 (≈ 0.143 µM)	–
Cc1c(N2C[C@@H](CCO)[C@@H](CCO)C2)c(F)cc2c(=O)c(C(=O)O)cn(C3CC3)c12 [drawing 414]	0.06 (≈ 0.143 µM)	0.03 (≈ 0.0717 µM)	0.002 (≈ 0.00478 µM)	0.03 (≈ 0.0717 µM)	–
Cc1c(N2C[C@@H](CO)[C@@H](CO)C2)c(F)cc2c(=O)c(C(=O)O)cn(C3CC3)c12 [drawing 405]	0.06 (≈ 0.154 µM)	0.06 (≈ 0.154 µM)	0.004 (≈ 0.0102 µM)	0.06 (≈ 0.154 µM)	–
Cc1c(N2C[C@@H]3CC[C@@](O)(CO)[C@@H]3C2)c(F)cc2c(=O)c(C(=O)O)cn(C3CC3)c12 [drawing 461]	0.125 (≈ 0.3 µM)	0.25 (≈ 0.6 µM)	0.008 (≈ 0.0192 µM)	0.06 (≈ 0.144 µM)	–
Cc1c(N2CCC(C(O)C(C)(F)F)C2)c(F)cc2c(=O)c(C(=O)O)cn(C3CC3)c12 (stereo not drawn) [drawing 369]	0.25 (≈ 0.589 µM)	0.25 (≈ 0.589 µM)	0.004 (≈ 0.00942 µM)	0.125 (≈ 0.295 µM)	–
Cc1c(N2CCC(C(O)C(F)(F)F)C2)c(F)cc2c(=O)c(C(=O)O)cn(C3CC3)c12 (stereo not drawn) [drawing 363]	–	0.5 (≈ 1.17 µM)	0.0015 (≈ 0.0035 µM)	0.25 (≈ 0.584 µM)	0.25
O=C(O)c1cn(-c2ccc(F)cc2F)c2nc(N3C[C@@H](CO)[C@@H](CO)C3)c(F)cc2c1=O [drawing 398]	0.5 (≈ 1.11 µM)	0.5 (≈ 1.11 µM)	0.06 (≈ 0.134 µM)	0.5 (≈ 1.11 µM)	–
COC[C@@H]1CN(c2c(F)cc3c(=O)c(C(=O)O)cn(C4CC4)c3c2C)C[C@@H]1COC [drawing 407]	0.5 (≈ 1.19 µM)	0.25 (≈ 0.597 µM)	0.03 (≈ 0.0717 µM)	0.25 (≈ 0.597 µM)	–
COCC(O)C1CCN(c2c(F)cc3c(=O)c(C(=O)O)cn(C4CC4)c3c2C)C1 (stereo not drawn) [drawing 370]	1 (≈ 2.47 µM)	1 (≈ 2.47 µM)	0.06 (≈ 0.148 µM)	0.5 (≈ 1.24 µM)	–
